Drawing on patent US12202829B2, “Heterocyclic compound” (FIMECS, Inc., priority 2018, dated 2025), this text covers IC50 and inhibition for 21 compounds.

Structures can show the parent of a compound that is named as a salt.

In one test the target is T1, human XIAP_BIR3 domain purified protein (Homo sapiens, UniProt P98170).
T1 construct: purchased R & D
T1 sequence (P98170 252-356 limits assumed): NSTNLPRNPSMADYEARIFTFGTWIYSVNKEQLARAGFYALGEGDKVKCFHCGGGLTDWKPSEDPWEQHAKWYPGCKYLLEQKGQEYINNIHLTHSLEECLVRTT
Description: XIAP binding inhibitory activity, HTRF method with b-Smac ligand. The conditions noted are these: second symbol of the cell; read-out: XIAP binding 50% inhibitory concentration (IC50 value). As for the experimental part: Human XIAP binding inhibitory activity were measured by the Homogeneous Time Resolved Fluorescence (HTRF) method with using commercially available human XIAP_BIR3 domain purified protein (R & D) and as a ligand a Smac N-terminal peptide (AVPIAQK (SEQ ID NO: 1)) (hereinafter referred to as “b-Smac”; Peptide Research Laboratories, Inc.) biotinylated at the C-terminus according to a conventional method.
The HTRF method will be described in detail below. A test compound diluted with a reaction buffer was added to a 384-well white shallow bottom plate (Greiner 784076) at 1 μL/well and flash centrifuged for 30 seconds. Subsequently, human XIAP_BIR3 domain purified protein was diluted with the reaction buffer (25 mM HEPES Buffer containing 100 mM NaCl, 0.1% BSA, and 0.1% triton X-100, pH 7.5) to obtain a 90 nM sample diluent, and the resultant sample diluent was added to the above-mentioned white superficial plate at 4.5 μL/well and flash centrifuged for 30 seconds. Subsequently, b-Smac diluted to 90 nM with the reaction buffer was added to the above-mentioned white superficial plat at 4.5 μL/well and flash centrifuged for 30 seconds. A mixed solution of Anti-6 HIS-Cryptate (Eu3+Cryptate-conjugated mouse monoclonal antibody anti-6 Histidine; cisbio) and Streptavidin-XL^ent! (Highgrade XL665-conjugated streptavidin; cisbio) both diluted 100-fold with HTRF detection buffer (cisbio) at a volume ratio of 1:1 was added to the above white superficial plate at 10 μL/well. After flash centrifuging the white shallow bottom plate for 30 seconds, the white shallow bottom plate was left at room temperature for 4 hours or more in the dark. The white superficial plate after being left was subjected to fluorescence intensity measurement (excitation wavelength: 320 nm, fluorescence wavelength: 665 nm and 615 nm) by EnVision (Perkin Elmer).
The binding inhibition rate (%) was calculated based on the HTRF ratio in the presence of the test compound to the HTRF ratio in the absence of the test compound (fluorescence intensity at 665 nm/fluorescence intensity at 615 nm).
On the technique in general: TR-FRET usually uses a lanthanide donor and a delayed reading to cut background.
For the compound `CN[C@@H](C)C(=O)N[C@@H](C(=O)N1CCN(C(=O)c2cc3cc(F)c(F)cc3n2CCOCCOCc2ccccc2)CC1)C1CCCCC1` [Example 46, (S)—N—((R)-2-(4-(1-(2-(2-(Benzyloxy)ethoxy)ethyl)-5,6-difluoro-1H-indole-2-carbonyl)piperazin-1-yl)-1-cyclohexyl-2-oxoethyl)-2-(methylamino)propanamide Hydrochloride], the IC50 lay in the range of 3 to 30 µM. As for `CN[C@@H](C)C(=O)N[C@H](C(=O)N1CCN(C(=O)c2cc3cc(F)c(OC)cc3n2C)C[C@H]1C)C1CCCCC1` [Example 57, (S)—N—[(S)-1-Cyclohexyl-2-[(R)-4-[(5-fluoro-6-methoxy-1-methyl-1H-indole-2carbonyl]-2-methylpiperazin-1-yl]-2-oxoethyl]-2-(methylamino)propanamide trifluoroacetate], the IC50 lay in the range of 0.3 to 3 µM. The same measure, in the same setting: with `CN[C@@H](C)C(=O)N[C@H](C(=O)N1C2CC1CN(C(=O)c1cc3cc(F)c(F)cc3n1C)C2)C1CCCCC1` [Example 60, (2S)-N-((1S)-1-cyclohexyl-2-(3-((5,6-difluoro-1-methyl-1H-indol-2-yl)carbonyl)-3,6-diazabicyclo[3.1.1]heptan-6-yl)-2-oxoethyl)-2 (methylamino)propanamide] the figure was 3 to 30 µM. The same measure, in the same setting: the figure for `CN[C@@H](C)C(=O)N[C@H](C(=O)N1CCN(C(=O)c2cc3cc(F)c(F)cc3n2C)C[C@H]1C)C1CCCCC1` [Example 56, (S)—N—((S)-1-Cyclohexyl-2-((R)-4-(5,6-difluoro-1-methyl-1H-indole-2-carbonyl)-2-methylpiperazin-1-yl)-2-oxoethyl)-2-(methylamino)propanamide Trifluoroacetate] is 3 to 30 µM; for `CN[C@@H](C)C(=O)N[C@H](C(=O)N1CCN(C(=O)c2cc3cc(F)ccc3n2CCOC)CC1)C1CCCCC1` [Example 52, (S)—N—((S)-1-Cyclohexyl-2-(4-(5-fluoro-1-(2-methoxyethyl)-1H-indole-2-carbonyl)piperazin-1-yl)-2-oxoethyl)-2-(methylamino)propanamide] it is 3 to 30 µM; for `CN[C@@H](C)C(=O)N[C@H](C(=O)N1CCN(C(=O)c2ccc3c(c2)cc(C)n3CCOCCOCCO)CC1)C1CCCCC1` [Example 69, (S)—N—((S)-1-Cyclohexyl-2-(4-(1-(2-(2-(2-hydroxyethoxy)ethoxy)ethyl)-2-methyl-1H-indole-5-carbonyl)piperazine-1-yl)-2-oxoethyl)-2-(methylamino)propanamide] it is below 0.3 µM.

Staying with this test, now noted: test compound 3 μM; first symbol of the cell; read-out: XIAP binding inhibition rate when the concentration of the test compound is 3 μM.
In the case of `CN[C@@H](C)C(=O)N[C@H](C(=O)N1CCN(C(=O)c2cc3cc(F)ccc3n2C)CC1)C1CCCCC1` [Example 15, (S)-N-((S)-1-cyclohexyl-2-(4-(5-fluoro-1-methyl-1H-indole-2-carbonyl)piperazin-1-yl)-2-oxoethyl)-2-(methylamino)propanamide], the inhibition at 3 µM is above 75%. Still for that read-out and setting: the figure for `CN[C@@H](C)C(=O)N[C@H](C(=O)N1CCN(C(=O)c2cc3cc(F)ccc3n2CC(=O)NCCOCCNC(=O)C[C@@H]2N=C(c3ccc(Cl)cc3)c3c(sc(C)c3C)-n3c(C)nnc32)CC1)C1CCCCC1` [Example 75, (S)-N-((S)-2-(4-(1-(2-((2-(2-(2-((S)-4-(4-chlorophenyl)-2,3,9-trimethyl-6H-thieno[3,2-f][1,2,4]triazolo[4,3-a][1,4]diazepin-6-yl)acetamido)ethoxy)ethyl)amino)-2-oxoethyl)-5-fluoro-1H-indole-2-carbonyl)piperazin-1-yl)-1-cyclohexyl-2-oxoethyl)-2-(methylamino)propanamide] is above 25%. Consider `CN[C@@H](C)C(=O)N[C@H](C(=O)N1CCN(C(=O)c2cc3ccnn3cc2C)CC1)C1CCCCC1` [Example 3, (S)-N-((S)-1-cyclohexyl-2-(4-(6-methylpyrazolo[1,5-a]pyridine-5-carbonyl)piperazin-1-yl)-2-oxoethyl)-2-(methylamino)propanamide], for which the inhibition at 3 µM was 25 to 50%. The same measure, in the same setting: with `CN[C@@H](C)C(=O)N[C@H](C(=O)N1CCN(C(=O)c2ccn3nccc3c2F)CC1)C1CCCCC1` [Example 5, (S)-N-((S)-1-cyclohexyl-2-(4-(4-fluoropyrazolo[1,5-a]pyridine-5-carbonyl)piperazin-1-yl)-2-oxoethyl)-2-(methylamino)propanamide] the figure was 25 to 50%; with `CN[C@@H](C)C(=O)N[C@H](C(=O)N1CCN(C(=O)c2ccc3cc(C)cn3c2)CC1)C1CCCCC1` [Example 20, (S)-N-((S)-1-cyclohexyl-2-(4-(2-methylindolizine-6-carbonyl)piperazin-1-yl)-2-oxoethyl)-2-(methylamino)propanamide], above 75%. The same measure, in the same setting: with `CN[C@@H](C)C(=O)N[C@H](C(=O)N1CCN(C(=O)c2cc3ccc(OC)cc3n2C)[C@@H](C)C1)C1CCCCC1` [Example 33, (S)—N—((S)-1-Cyclohexyl-2-((S)-4-(6-methoxy-1-methyl-1H-indole-2-carbonyl)-3-methylpiperazin-1-yl)-2-oxoethyl)-2-(methylamino)propanamide Hydrochloride] the figure was above 75%. On the same count and under the same terms, with `CN[C@@H](C)C(=O)N[C@H](C(=O)N1CCN(C(=O)c2cc3cccc(C)c3n2C)CC1)C1CCCCC1` [Example 16, (S)-N-((S)-1-cyclohexyl-2-(4-(1,7-dimethyl-1H-indole-2-carbonyl)piperazin-1-yl)-2-oxoethyl)-2-(methylamino)propanamide] the figure was 50 to 75%.

Take `CN[C@@H](C)C(=O)N[C@H](C(=O)N1CCN(C(=O)c2c(C(=O)NCCOCCOCCNC(=O)OCC3c4ccccc4-c4ccccc43)c3ccc(OC)cc3n2C)CC1)C1CCCCC1` [Example 38, (9H-Fluoren-9-yl)methyl (2-(2-(2-(2-(4-((S)-2-cyclohexyl-2-((S)-2-(methylamino)propanamido)acetyl)piperazine-1-carbonyl)-6-methoxy-1-methyl-1H-indole-3-carboxamido)ethoxy)ethoxy)ethyl)carbamate Hydrochloride]: the inhibition at 3 µM is above 75%. Turning to `CCOc1cc(C(=O)N2CCN(C(=O)[C@@H](NC(=O)[C@H](C)NC)C3CCCCC3)CC2)n(C)n1` [Example 12, (S)-N-((S)-1-cyclohexyl-2-(4-(3-ethoxy-1-methyl-1H-pyrazole-5-carbonyl)piperazin-1-yl)-2-oxoethyl)-2-(methylamino)propanamide], the inhibition at 3 µM was above 25%. Same read-out and setting: with `CN[C@@H](C)C(=O)N[C@H](C(=O)N1CCN(C(=O)c2c(OCCOCCOCCO)c3cc(F)c(F)cc3n2C)CC1)C1CCCCC1` (stereo in doubt) [Example 62, (S)—N—((S)-1-Cyclohexyl-2-(4-(5,6-difluoro-3-(2-(2-(2-hydroxyethoxy)ethoxy)ethoxy)-1-methyl-1H-indole-2-carbonyl)piperazin-1-yl)-2-oxoethyl)-2-(methylamino)propanamide] the figure was 25 to 50%; with `CN[C@@H](C)C(=O)N[C@H](C(=O)N1CCN(C(=O)c2c(OCCOCCOCCOCCO)c3cc(F)c(F)cc3n2C)CC1)C1CCCCC1` [Example 63, (S)-N-((S)-1-cyclohexyl-2-(4-(5,6-difluoro-3-(2-(2-(2-(2-hydroxyethoxy)ethoxy)ethoxy)ethoxy)-1-methyl-1H-indole-2-carbonyl)piperazin-1-yl)-2-oxoethyl)-2-(methylamino)propanamide], 25 to 50%. Same read-out and setting: with `CN[C@@H](C)C(=O)N[C@H](C(=O)N1CCN(C(=O)c2ccc3c(C)n(C)nc3c2)CC1)C1CCCCC1` [Example 23, (S)-N-((S)-1-cyclohexyl-2-(4-(2,3-dimethyl-2H-indazole-6-carbonyl)piperazin-1-yl)-2-oxoethyl)-2-(methylamino)propanamide] the figure was above 25%. For the compound `CN[C@@H](C)C(=O)N[C@H](C(=O)N1CCN(C(=O)c2cc3ccc(OC)cc3n2C)[C@H](C)C1)C1CCCCC1` [Example 34, (S)—N—((S)-1-Cyclohexyl-2-((R)-4-(6-methoxy-1-methyl-1H-indole-2-carbonyl)-3-methylpiperazin-1-yl)-2-oxoethyl)-2-(methylamino)propanamide Hydrochloride], the inhibition at 3 µM is above 75%. Still for that read-out and setting: with `CN[C@@H](C)C(=O)N[C@H](C(=O)N1CCN(C(=O)c2cc3ccc(OC)cc3n2C)C[C@H]1C)C1CCCCC1` [Example 24, (S)—N—((S)-1-cyclohexyl-2-((R)-4-(6-methoxy-1-methyl-1H-indole-2-carbonyl)-2-methylpiperazin-1-yl)-2-oxoethyl)-2-(methylamino)propanamide Hydrochloride] the figure was above 75%; with `CN[C@@H](C)C(=O)N[C@H](C(=O)N1CCN(C(=O)c2cc3ccnn3cc2F)CC1)C1CCCCC1` [Example 6, (S)-N-((S)-1-cyclohexyl-2-(4-(6-fluoropyrazolo[1,5-a]pyridine-5-carbonyl)piperazin-1-yl)-2-oxoethyl)-2-(methylamino)propanamide], above 25%.
